Measured values taken from PubChem BioAssay (NCI).
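The compound was tested at five concentrations on cells cultured in 96-well plates, with a 48-hour exposure period. TGI: concentration producing complete growth inhibition.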

Assays:
Assay in all cases: DTP human tumour cell line panel, 48 h
SNB-19 CNS = tested on: SNB-19 CNS
HCC-2998 colon = tested on: HCC-2998 colon
U251 CNS = tested on: U251 CNS
IGROV1 ovarian = tested on: IGROV1 ovarian
RPMI-8226 leukemia = tested on: RPMI-8226 leukemia
HL-60(TB) leukemia = tested on: HL-60(TB) leukemia
COLO 205 colon = tested on: COLO 205 colon
HT29 colon = tested on: HT29 colon
SN12C renal = tested on: SN12C renal
UO-31 renal = tested on: UO-31 renal
HCT-116 colon = tested on: HCT-116 colon
OVCAR-5 ovarian = tested on: OVCAR-5 ovarian
A549 NSCLC = tested on: A549 NSCLC
OVCAR-3 ovarian = tested on: OVCAR-3 ovarian
MALME-3M melanoma = tested on: MALME-3M melanoma
RXF 393 renal = tested on: RXF 393 renal
MOLT-4 leukemia = tested on: MOLT-4 leukemia
MDA-MB-231 breast = tested on: MDA-MB-231 breast
EKVX NSCLC = tested on: EKVX NSCLC
UACC-62 melanoma = tested on: UACC-62 melanoma

| Compound | TGI (SNB-19 CNS) [µM] | TGI (HCC-2998 colon) [µM] | TGI (U251 CNS) [µM] | TGI (IGROV1 ovarian) [µM] | TGI (RPMI-8226 leukemia) [µM] | TGI (HL-60(TB) leukemia) [µM] | TGI (COLO 205 colon) [µM] | TGI (HT29 colon) [µM] | TGI (SN12C renal) [µM] | TGI (UO-31 renal) [µM] | TGI (HCT-116 colon) [µM] | TGI (OVCAR-5 ovarian) [µM] | TGI (A549 NSCLC) [µM] | TGI (OVCAR-3 ovarian) [µM] | TGI (MALME-3M melanoma) [µM] | TGI (RXF 393 renal) [µM] | TGI (MOLT-4 leukemia) [µM] | TGI (MDA-MB-231 breast) [µM] | TGI (EKVX NSCLC) [µM] | TGI (UACC-62 melanoma) [µM] |
| --- | --- | --- | --- | --- | --- | --- | --- | --- | --- | --- | --- | --- | --- | --- | --- | --- | --- | --- | --- | --- |
| CC(=O)O[C@H]1CCC2[C@@H]3CCC4Nc5oncc5C[C@]4(C)C3CC[C@@]21C (some centres undefined) | > 10 | > 10 | > 10 | > 10 | > 10 | 4.58 | > 10 | > 10 | > 10 | > 10 | > 10 | > 10 | > 10 | > 10 | > 10 | > 10 | > 10 | > 10 |  |  |
| O=C1/C(=C/c2cccc(Br)c2)Cc2ccccc21 | > 100 |  | > 100 | > 100 | > 100 | > 100 | 89.7 | > 100 | > 100 | > 100 | > 100 | > 100 | > 100 | > 100 | > 100 |  | > 100 | > 100 | > 100 | > 100 |
| CN1C(=O)c2ccccc2OC12C=Cc1ccc(O)cc1O2 (centres undefined) | > 100 | 50.8 | > 100 | > 100 | > 100 | 58.5 | 65.1 | 57.2 | > 100 | 57.7 | 81 | > 100 | > 100 | 63.6 |  |  | 58.7 | 82.1 | 64.5 | 91.6 |
| N#CC1=C(Nc2ccccc2)SC=C(c2ccccc2)NC1=NCc1ccccc1 | > 100 |  | > 100 |  | > 100 |  | > 100 |  | > 100 | > 100 | > 100 | > 100 | > 100 | > 100 | > 100 | > 100 | > 100 | > 100 |  | > 100 |
| COC(=O)C1(C(=O)OC)C/C(C)=C(/C)SCCCS1 | > 100 | > 100 | > 100 | > 100 |  |  | > 100 | > 100 | > 100 | > 100 | > 100 | > 100 | > 100 | > 100 | > 100 | > 100 | > 100 | > 100 | > 100 | > 100 |
| COc1ccc(-c2nc(-c3cc4c(ccc5ccccc54)oc3=O)cs2)cc1 | > 100 | > 100 |  | > 100 | > 100 | > 100 | > 100 | > 100 | > 100 | > 100 | > 100 | > 100 | > 100 |  |  | > 100 | > 100 | > 100 | > 100 | > 100 |
